Laboratory results as given in patent publication US7449463B2, “Morpholinyl containing benzimidazoles as inhibitors of respiratory syncytial virus replication” (Tibotec Pharmaceuticals Ltd., priority 2003, dated 2008).

What was measured:
[1] = tested on: Respiratory Syncytial Virus; experiment: microbe, parasite or virus in culture; assay type: cell-based; details: human respiratory syncytial virus
Outline: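 HeLa cells infected with ~100 TCID50 RSV in Eagle's Basal Medium with 5% FCS, five-fold compound dilutions, 37° C, 5% CO2 for 7 days. Viability by MTT (A540 minus A690); EC50 for protection against cytopathic effect and CC50 from mock-infected wells, SI = CC50/EC50.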

[2] = 168 h, RSV-infected HeLa cells, MTT readout seven days after infection, −log of EC50 in molar units
[3] = pEC50 (−log of EC50 when expressed in molar units), protection against RSV cytopathology

melting point [°C] | EC50 [1, 3] [nM] | SMILES | EC50 [1, 2] [nM]
228 |  | Cc1cc(C)c2nc(NCCCN3CCOCC3)n(Cc3nc(C)ccc3O)c2c1 [Compound 154, 2-[4,6-dimethyl-2-(3-morpholin-4-yl-propylamino)-benzoimidazol-1-yl-methyl]-6-methyl-pyridin-3-ol] | 126
192 | 0.501 | Cc1ccc(CCO)c(NCc2ccc3nc(NCCCN4CCOCC4)n(Cc4ncccc4O)c3c2)c1 [Compound 192, 2-[6-{[2-(2-Hydroxy-ethyl)-5-methyl-phenylamino]-methyl}-2-(3-morpholin-4-yl-propylamino)-benzoimidazol-1-ylmethyl]-pyridin-3-ol] | 
154 | 3.16 | Cc1cc(C)cc(N(CCCC(N)=O)Cc2ccc3nc(NCCCN4CCOCC4)n(Cc4cccc5cccnc45)c3c2)c1 [Compound 223, 4-{(3,5-Dimethyl-phenyl)-[2-(3-morpholin-4-yl-propylamino)-3-quinolin-8-ylmethyl-3H-benzoimidazol-5-ylmethyl]-amino}-butyramide] | 
120 | 25.1 | Cc1ccc(CCCO)c(NCc2ccc3nc(NCCCN4CCOCC4)n(Cc4nc(C)c(C)nc4C)c3c2)c1 [Compound 255, 3-(4-Methyl-2-{[2-(3-morpholin-4-yl-propylamino)-3-(3,5,6-trimethyl-pyrazin-2-ylmethyl)-3H-benzoimidazol-5-ylmethyl]-amino}-phenyl)-propan-1-ol] | 
234 |  | Cc1cc(C)c2c(c1)nc(NCCCN1CCOCC1)n2Cc1nc(C)ccc1O [Compound 156, 2-[5,7-dimethyl-2-(3-morpholin-4-yl-propylamino)-benzoimidazol-1-ylmethyl]-6-methyl-pyridin-3-ol] | 12600
121 |  | Cc1cc(C)cc(N(CCCC(=O)O)Cc2ccc3nc(NCCCN4CCOCC4)n(Cc4nc(C)ccc4O)c3c2)c1 [Compound 62, 4-{(3,5-dimethyl-phenyl)-[3-(3-hydroxy-6-methyl-pyridin-2-ylmethyl)-2-(3-morpholin-4-yl-propylamino)-3H-benzoimidazol-5-ylmethyl]-amino}-butyric acid] | 0.398
198 | 2.51 | Cc1ccc(CCCO)c(NCc2ccc3nc(NCCCN4CCOCC4)n(Cc4cccc5c4ncn5C)c3c2)c1 [Compound 218, 3-(4-Methyl-2-{[3-(1-methyl-1H-benzoimidazol-4-ylmethyl)-2-(3-morpholin-4-yl-propylamino)-3H-benzoimidazol-5-ylmethyl]-amino}-phenyl)-propan-1-ol] | 
206 | 3.98 | Cc1cc(C)cc(N(CCCC(N)=O)Cc2ccc3nc(NCCCN4CCOCC4)n(Cc4cccc5c4ncn5C)c3c2)c1 [Compound 230, 4-{(3,5-Dimethyl-phenyl)-[3-(1-methyl-1H-benzoimidazol-4-ylmethyl)-2-(3-morpholin-4-yl-propylamino)-3H-benzoimidazol-5-ylmethyl]-amino}-butyramide] | 
134 | 0.501 | Cc1ccc(CCCO)c(NCc2ccc3nc(NCCCN4CCOCC4)n(Cc4cc(Br)ccc4O)c3c2)c1 [Compound 201, 4-Bromo-2-[6-{[2-(3-hydroxy-propyl)-5-methyl-phenylamino]-methyl}-2-(3-morpholin-4-yl-propylamino)-benzoimidazol-1-ylmethyl]-phenol] | 
140 | 5.01 | Cc1cc(C)cc(N(CCO)Cc2ccc3nc(NCCCN4CCOCC4)n(Cc4nc(C)c(C)nc4C)c3c2)c1 [Compound 233, 2-{(3,5-Dimethyl-phenyl)-[2-(3-morpholin-4-yl-propylamino)-3-(3,5,6-trimethyl-pyrazin-2-ylmethyl)-3H-benzoimidazol-5-ylmethyl]-amino}-ethanol] | 
132 | 2.51 | COc1ccc(C)nc1Cn1c(NCCCN2CCOCC2)nc2ccc(CNc3cc(C)ccc3CCCO)cc21 [Compound 219, 3-(2-{[3-(3-Methoxy-6-methyl-pyridin-2-ylmethyl)-2-(3-morpholin-4-yl-propylamino)-3H-benzoimidazol-5-ylmethyl]-amino}-4-methyl-phenyl)-propan-1-ol] | 
168 |  | CCn1ncc(Cc2ccc3nc(NCCCN4CCOCC4)n(Cc4nc(C)ccc4O)c3c2)c1NCCO [Compound 152] | 7.94
170 |  | Cc1ccc(S(=O)(=O)CCO)c(NCc2ccc3nc(NCCCN4CCOCC4)n(Cc4nc(C)ccc4O)c3c2)c1 [Compound 12] | 0.251
141 | 50.1 | Cc1ccc(CCCO)c(NCc2ccc3nc(NCCCN4CCOCC4)n(Cc4cccc(Br)n4)c3c2)c1 [Compound 267, 3-(2-{[3-(6-Bromo-pyridin-2-ylmethyl)-2-(3-morpholin-4-yl-propylamino)-3H-benzoimidazol-5-ylmethyl]-amino}-4-methyl-phenyl)-propan-1-ol] | 

SMILES | melting point [°C] | EC50 [1, 3] [nM] | EC50 [1, 2] [nM]
Cc1cc(C)c2nc(N(CC(C)N3CCOCC3)C3CCNCC3)n(Cc3nc(C)ccc3O)c2c1 (stereo not drawn) [Compound 161, 2-[4,6-dimethyl-2-(2-morpholin-4-ylpropyl-piperidin-4-ylamino)-benzoimidazol-1-ylmethyl]-6-methyl-pyridin-3-ol] | 223 |  | 2.51
